Results: ChEMBL document CHEMBL3046290, “Metabolic effects of benzylidene thiazolidinedione derivatives in high-fat fed mice” (Med Chem Res, 2012)

Tests used:
[1] = test system: Mus musculus; test: Toxicity in high-fat fed Mus musculus Swiss albino (mouse) assessed as change in body weight at 30 mg/kg, po qd for 15 days (reference value: 39.9 +/- 1.3 g); format: organism-based; set-up: dose 30 mg/kg, route oral; conditions: in vivo, 360 h
[2] = test system: Mus musculus; test: Antihyperglycemic activity in high-fat fed Mus musculus Swiss albino (mouse) assessed as reduction of insulin resistance index at 30 mg/kg, po qd for 15 days; format: functional; set-up: scale not given: the % may be the effect or the level left
[3] = test system: Mus musculus; test: Antihyperglycemic activity in high-fat fed Mus musculus Swiss albino (mouse) assessed as reduction of fasting serum insulin level at 30 mg/kg, po qd for 15 days; format: functional; set-up: scale not given: the % may be the effect or the level left
[4] = test system: Mus musculus; test: Antihyperglycemic activity in high-fat fed Mus musculus Swiss albino (mouse) assessed as reduction of fasting serum glucose level at 30 mg/kg, po qd for 15 days; format: functional; set-up: scale not given: the % may be the effect or the level left
[5] = test system: Mus musculus; test: Antihyperlipidemic activity in high-fat fed Mus musculus Swiss albino (mouse) assessed as reduction of serum cholesterol level at 30 mg/kg, po qd for 15 days; format: functional; set-up: scale not given: the % may be the effect or the level left
[6] = test system: Mus musculus; test: Antihyperlipidemic activity in high-fat fed Mus musculus Swiss albino (mouse) assessed as reduction of serum triglyceride level at 30 mg/kg, po qd for 15 days; format: functional; set-up: scale not given: the % may be the effect or the level left

Structure (SMILES)	Activity [1] [g]	Activity [2] [%]	Activity [3] [%]	Activity [4] [%]	Activity [5] [%]	Activity [6] [%]
COc1ccc(/C=C2\SC(=O)N(Cc3ccc(C)cc3)C2=O)cc1	5.12	81	65	46	27	44
COc1ccc(/C=C2\SC(=O)N(Cc3ccc(C)cc3)C2=O)c(OC)c1	6.06	57	33	36	36	38
Cc1ccc(CN2C(=O)S/C(=C\c3ccc(N(C)C)cc3)C2=O)cc1	5.88	73	56	38	22	23
Cc1ccc(CN2C(=O)S/C(=C\c3ccc(Cl)cc3)C2=O)cc1	6.71	49	27	29	40	42
CN(CCOc1ccc(CC2SC(=O)NC2=O)cc1)c1ccccn1 (stereo not given) [ROSIGLITAZONE]	5.28	71	48	44	35	43
